# In patent US9187539B2, “Compositions having antiangiogenic activity and uses thereof” (The Johns Hopkins University, priority 2005, dated 2015):
# Legend:
# [1] = tested on: human umbilical vein endothelial cells (HUVECs); assay: HUVEC proliferation assay (WST-1), 3-day, 2,000 cells per well; assay type: cell-based; conditions: 3-day assay; for anti-proliferative activity in words at high peptide concentration: high/highest applied concentration (30 μg/ml where stated); for anti-proliferative activity in words: overall; for anti-proliferative activity (maximum or stated level), scaled so that TNP-470 = 100%: 0.01-30 μg/ml
# Method: In addition to the 2 and 4 day proliferation experiment where 5,000 cells per well were seeded, the effects of the peptides on the proliferating ability of HUVECs were also studied using cells seeded at a density of 2,000 cells per well. This lower cell seeding density allowed the experiment to be extend for an additional day without changing the cell medium. The effects of the peptides when applied to the cells for 3 consecutive days is also reported herein. The proliferation assay again involved two steps. During the first step 2,000 cells per well for a 96-well plate were seeded without any extracellular matrix substrate on the wells overnight (8 hours). The initial cell culture medium was removed using a multichannel pipetor. To synchronize the cells, the cells were serum starved for 4 hours and the candidate peptides were applied. During serum starvation the cell culture medium was changed from a “full” medium to the “basal” medium, which contained no growth factors or serum. Serum starvation for 4 hours had no effect on the proliferation of the cells. For this assay, the logarithmic scale of four different concentrations of 0.01 μg/ml, 0.1 μg/ml, 1 μg/ml and 10 μg/ml of peptide was used. In addition, a larger concentration of 30 μg/ml peptide was also applied. Each of the concentrations was again tested in quadruplicate. After the third day of peptide application the WST-1 dye was applied for approximately 2 to 4 hours (usually after 3 hours the color saturates). The proliferation was later tested on the ELISA plate reader as described for the 2 and 4 day assay. Note that the 2- and 4-day and the 3-day protocols differed in that 5,000 cells/well versus 2,000 cells/well seeded, respectively.
# [2] = tested on: human umbilical vein endothelial cells (HUVECs); assay: HUVEC proliferation assay (WST-1), 2- and 4-day, 5,000 cells per well; assay type: cell-based; conditions: for concentration-response profile in words: 2- and/or 4-day assay; for anti-proliferative activity in words at 0.01 μg/ml: 0.01 μg/ml peptide
# Method: The effect of the various peptides on cell proliferation was assayed, by administering the peptides to human umbilical vein endothelial cells (HUVECs) in culture. 45 peptides belonging to four distinct families of proteins including the thrombospondin-1 containing proteins, the C-X-C chemokines, collagen derived peptides and peptides from tissue inhibitors of metalloproteinases were tested. The potency of each of the peptides was tested using the proliferation assay at 2 days and 4 days following administration of the peptides and a similar assay using a different cell density at 3 days. In the four-day experiments, the cell medium was changed after the second day of incubation and the peptide was replaced at the initial concentration together with the medium. TNP-470 is an antiangiogenic compound that was used as a positive control for assessing anti-angiogenic efficacy. The activity of each polypeptide was, therefore, expressed as a percentage of TNP-470 activity, i.e., the optical density obtained experimentally is scaled such that the negative control is 0% and the positive control is 100% as explained below (FIG. 4). Each plate included a well having HUVEC cells that received 0.1 μg/ml TNP-470. For example, a peptide having the same effect on endothelial cell proliferation would have 100% of the activity of TNP-470. Note that activity could exceed 100%. In this assay, the effects of the predicted anti-angiogenic fragments on the ability of HUVECs to proliferate was characterized. […] A commonly used methodology to test for proliferation is to monitor the viability and metabolic activity of endothelial cells, in the presence of the anti-angiogenic fragments at different concentrations and various time steps. The cell proliferation reagent WST-1 was used as a substrate/assay to measure the metabolic activity of viable cells. WST-1 is a colorimetric, non-radioactive assay and can be performed in a microplate. It is suitable for measuring cell proliferation, cell viability or cytotoxicity. The assay is based on the reduction a red tetrazolium salt, WST-1, by viable, metabolically active, cells to form the yellow formazan crystals soluble in the cell medium. […] The cells are cultured described above. Once cells have reached 80% confluence they are trypsinized and resuspended in EGM-2. The cell density is estimated using a hemocytometer. All of the endothelial cells used were from passage 4 to passage 8. The proliferation assay involved two steps. During the first step the cells, approximately 5,000 cells per well for a 96-well plate, were seeded without any extracellular matrix substrate on the wells overnight (8 hours). The initial cell culture medium was removed using a multichannel pipetor and the candidate peptides were applied. A logarithmic scale of four different concentrations of 0.01 μg/ml, 0.1 μg/ml, 1 μg/ml and 10 μg/ml of each peptide was used. Each of the concentrations was tested in quadruplicate. The viability of the cells was challenged at 2 and 4 days upon the application of the peptide. As a positive control for decreased viability, 0.1 μg/ml of TNP-470 (O-(chloro-acetyl-carbamoyl) fumagillol, a synthetic analogue of fumagillin; TNP-470 was provided by NCI, was provided along with the medium, and as a negative control for normal viability, the cells were cultured without the addition of any agent. The cells were then incubated with 10 μl per well of the red WST-1 reagent for approximately 2 to 4 hours. During this incubation period, viable cells converted, in their mitochondria, the red WST-1 to the yellow formazan crystals which dissolve in the medium. The second step of the assay involved the quantification of the changes in proliferation which was performed by measuring the change in color after lysing the cells. The samples were read using the ELISA plate reader Victor3 V (Perkin Elmer) at a wavelength of […]. The amount of color produced is directly proportional to the number of viable cells. […]
# [3] = 2- and 4-day assay, day not specified
# [4] = 2- and 4-day assay, day not specified or constant throughout the four days
# [5] = 10 μg/ml peptide, 2- and 4-day assay
# [6] = 4 days of peptide application, 0.01-10 μg/ml
Sequence,anti-proliferative activity in words at high peptide concentration [1],"anti-proliferative activity (maximum or stated level), scaled so that TNP-470 = 100% [2, 4]",concentration-response profile in words [1],concentration-response profile in words [2],anti-proliferative activity in words ([2]; 2 days of peptide application),"anti-proliferative activity (maximum or stated level), scaled so that TNP-470 = 100% [2, 6]","anti-proliferative activity (maximum or stated level), scaled so that TNP-470 = 100% [1]",also measured
"QPWSQCSATCGDGVRERRR [SEQ ID NO: 64, THSD1 AAQ88516.1: 347-365]",substantial increase in activity,approximately 20%,–,–,–,–,–,"peptide concentration at which maximum activity was observed [2, 3]: 0.01 µg/mL"
"SAWRACSVTCGKGIQKRSR [SEQ ID NO: 43, Fibulin-6 CAC37630.1: 1574-1592]",–,30%,peptide activity increasing as concentration increased,–,–,–,–,–
"SEWSDCSVTCGKGMRTRQR [SEQ ID NO: 73, VSGP/F-spondin BAB18461.1: 621-639]",increased activity,–,–,biphasic profile,not statistically significant,–,–,peptide concentration at which maximum activity was observed ([2]; 4 days): 0.01 µg/mL; anti-proliferative activity in words ([2]; 4 days of peptide application): notable activity
"SKWSECSRTCGGGVKFQER [SEQ ID NO: 29, ADAMTS-18 Q8TE60: 596-614]",significantly increased,–,–,biphasic response,–,–,–,"anti-proliferative activity, TNP-470 = 100% ([2]; 1 μg/ml peptide, 2 days): 30%; anti-proliferative activity in words at 10 μg/ml [2, 5]: reduced"
"SPWSKCSAACGQTGVQTRTR [SEQ ID NO: 39, CILP AAQ89263.1: 156-175]",–,~30%,–,biphasic activity,–,–,–,"peptide concentration at which maximum activity was observed [1]: 0.1 µg/mL; anti-proliferative activity, TNP-470 = 100% [2, 5]: 5%; anti-proliferative activity, TNP-470 = 100% ([2]; 0.01 and 0.1 μg/ml peptide, 2- and 4-day assay): 15%; peptide concentration at which maximum activity was observed [2, 3]: 1 µg/mL"
"SPWSPCSGNCSTGKQQRTR [SEQ ID NO: 65, THSD3 AAH33140.1: 280-298]",–,–,–,–,–,–,–,"anti-proliferative activity in words [1]: did not effect endothelial cell proliferation; anti-proliferative activity in words ([2]; 2- and 4-day assay, overall): did not effect endothelial cell proliferation"
"SPWSPCSTSCGLGVSTRI [SEQ ID NO: 74, WISP-1 AAH74841.1: 221-238]",reached higher values,–,–,–,not statistically significant,~20%,–,anti-proliferative activity in words [1]: intermediate levels
"SPWSQCSVRCGRGQRSRQVR [SEQ ID NO: 69, TSRC1 AAH27478.1: 140-159]",activity increased,–,–,biphasic,minimal activity,25%,–,peptide concentration at which maximum activity was observed ([2]; 4 days): 0.1 µg/mL; anti-proliferative activity in words ([2]; 4 days of peptide application): prominent activity
"SPWSQCTASCGGGVQTR [SEQ ID NO: 24, ADAMTS-16 Q8TE57: 1133-1149]",increase in peptide activity,–,–,biphasic response,–,30%,–,anti-proliferative activity in words ([2]; 4 days of peptide application): strong activity
"TAWGPCSTTCGLGMATRV [SEQ ID NO: 75, WISP-2 AAQ89274.1: 199-216]",–,–,–,biphasic response,–,–,20%,anti-proliferative activity in words at 0.01 μg/ml ([2]; 2- and 4-day assay): quite potent
"TEWSACNVRCGRGWQKRSR [SEQ ID NO: 71, UNC5D AAQ88514.1: 259-277]",–,20%,biphasic,–,–,–,30%,–
"TEWSACSKTCGMGISTRV [SEQ ID NO: 41, CTGF CAC44023.1: 204-221]",–,–,–,–,low,40%,–,anti-proliferative activity in words [1]: resembled those observed in the 2-day assay; peptide concentration at which maximum activity was observed ([2]; 4 days): 1 µg/mL
"TEWSVCNSRCGRGYQKRTR [SEQ ID NO: 70, UNC5C AAH41156.1: 267-285]",–,–,–,–,negligible activity,20%,20%,"anti-proliferative activity, TNP-470 = 100% ([1]; 30 μg/ml peptide): 40%; peptide concentration at which maximum activity was observed [1]: 10 µg/mL"
"TEWTACSKSCGMGFSTRV [SEQ ID NO: 46, NOVH AAL92490.1: 211-228]",–,20%,monotonic increase with concentration,–,–,–,–,"peptide concentration at which maximum activity was observed [2, 3]: 0.01 µg/mL"
"TKWTPCSRTCGMGISNRV [SEQ ID NO: 76, WISP-3 CAB16556.1: 191-208]",–,–,increased significantly as the concentration increased,biphasic,–,–,–,anti-proliferative activity in words at 0.01 μg/ml ([2]; 2- and 4-day assay): shows potency
"TQWTSCSKTCNSGTQSRHR [SEQ ID NO: 38, C6 AAB59433.1: 30-48]",–,–,biphasic,–,–,35%,25%,–
"TSWSQCSKTCGTGISTRV [SEQ ID NO: 42, CYR61 AAR05446.1: 234-251]",–,30%,–,biphasic,–,–,30%,"peptide concentration at which maximum activity was observed [1]: 0.1 µg/mL; peptide concentration at which maximum activity was observed [2, 3]: 0.01 µg/mL"
"WDECSATCGMGMKKRHR [SEQ ID NO: 72, VSGP/F-spondin BAB18461.1: 567-583]",–,–,–,–,not statistically significant,10%,–,anti-proliferative activity in words [1]: exhibited activity
"WTRCSSSCGRGVSVRSR [SEQ ID NO: 66, THSD6 AAH40620.1: 44-60]",–,–,biphasic,biphasic,–,–,~30%,"peptide concentration at which maximum activity was observed [2, 3]: 0.1 µg/mL; anti-proliferative activity (maximum or stated level), scaled so that TNP-470 = 100% ([2]; 2 days of peptide application, 0.01-10 μg/ml): approximately 20%"
"YCNIHQVCHYAQRNDRSYWL [SEQ ID NO: 86, α4CIV CAA56943.1: 1524-1543]",–,–,increasing at higher peptide concentrations,–,–,–,–,"anti-proliferative activity in words [1]: greater; anti-proliferative activity in words ([2]; 2- and 4-day assay, overall): low anti-proliferative activity"
